According to patent publication US6911527B1, “HIV related peptides” (The United States of America as represented by the …, priority 1999, dated 2005):

How the values were obtained:
[1] = ELISA reactivities of engineered (modified) peptide epitopes; format: binding
Procedure: The amino acid sequences of modifed peptides generated in this manner are as follows: • P195 analog: […] (SEQ ID NO: 14) • P197 analog: […] (SEQ ID NO:15) • P217 analog: […] (SEQ ID NO:16) • P287 analog: […] (SEQ ID NO: 17) • P335 analog: CSGRLYCHESWC (SEQ ID NO:18) • P54 analog: TKTLIYQGA (SEQ ID NO:19) The engineered eptiopes are then determined to be immunogenic as described in Example 4-6.

[2] = system: sera of SHIV-infected monkeys; assay: ELISA reactivity of monkey sera with HIV-specific phagotopes; format: binding, macaques; conditions: nine SHIV-infected monkeys
Procedure: FIG. 4. ELISA reactivities of monkey sera with HIV-specific phagotopes. Sera of naive monkeys (SHIV Negative) and SHIV-infected animals were tested for binding to HIV-1 phagotopes. Results are expressed as fold increase of OD405 nm values of tested phagotope over the OD405 nm values of wild-type-phage. Cutoff values were set as detailed in the legend to FIG. 1a. All the pre-infection sera of SHIV-positive animals tested negative by ELISA (not shown). A125, 42C, E50 and AK98 are Rhesus macaques; 4138, 4150 and 79 are cynomologous macaques; these animals were infected with SHIVMD1 (Shibata et al., J. Infect. Dis. 176:362 (1997)). 17860 and 17846 are pigtail macaques infected with SHIVMD14YE (Shibata et al., J. Infect. Dis. 176:362 (1997)).
In order to test this hypothesis, sera of nine SHIV-infected monkeys and of four uninfected control animals were tested for ELISA reactivity with the pool of HIV mimotopes. As in the case of HIV-1 infected subjects (FIG. 1a), sera of SHIV-infected monkeys recognized the HIV-1 phagotopes with variable frequencies (FIG. 4).

[3] = system: binding of phagotope-specific antibodies to HIV-1; assay: Displacement of binding of phagotope-specific antibodies to HIV-1 by phagotopes or peptides (ELISA); conditions: increasing concentrations of peptide
Procedure: FIG. 3. Phagotope-specific antibodies bind to HIV-1. a, ELISA reactivities of immunoaffinity purified antibodies with HIV-1. Antibodies were immunoaffinity purified from LTNP serum 6090 using single phagotopes as ligands and tested for ELISA reactivity against HIV-1 virions by using a standard ELISA kit (Organon). Purified antibodies were tested at 5-10 ng/ml; HIV-negative (CS) and serum 6090 (HIV-1S) were tested at 1:100 dilution. Data are expressed as mean±SEM of four independent determinations. b, The binding of phagotope-specific antibodies to HIV-1 is specifically displaced by the related phagotopes. ELISA reactivities of single immunopurified antibodies to HIV-I were tested in the presence of the indicated concentrations of p195 (▪), p197 (♦), p217 (●), p287 (▴), p335(▾). […] ELISA reactivities of single immunoaffinity purified antibodies with the related phagotopes were tested in the presence of increasing concentrations of peptides 195 (▪), 197 (▴), 217 (♦), 287 (ρ), 335 (●). d, HIV-1 immunoblotting with phagotope-specific human antibodies. Immunoffinity purified antibodies were tested at 60 ng/ml for binding to HIV-1 proteins in Western blot by a diagnostic kit (Cambridge Biotech.); 6090 LTNP serum was tested at 1:1000 dilution.
The phagotope specific antibodies, purified from serum to IgG concentrations of 5-10 ng/ml, recognized HIV-1 proteins by ELISA (FIG. 3a); this reactivity was specifically displaced by the related phagotopes, but not by wild-type or unrelated phages (FIG. 3b and data not shown).

[4] = system: serum antibodies of HIV-1-infected subjects; assay: ELISA reactivity of phagotopes with human sera (LTNP, AIDS, HIV-negative); format: binding; conditions: for antibody titers to phagotope in sera from LTNPs versus AIDS patients: p<0.05, one-sided Student's t test
Text: FIG. 1. ELISA reactivities of HIV-specific phagotopes. a, LTNP and AIDS subjects were selected as reported (Pantaleo et al., N. Engl. J Med 332:209 (1995)). HIV-specific phagotopes were identified from RPL pVIII9aa-cys (selection 1), or pVIII9aa (selection 2) by serial steps of screening and phage colony purification as described in the Methods section. Results are expressed as fold increase of the average values of the phagotopes over values of the wild-type phages. Values were considered positive when at least four-fold higher than the background signal of wild-type phage. Average values of at least four independent assays are shown as <4; 4<<10; 10.1<<20; >20. The far right column indicates the recognition frequency of positive sera by each phagotope (f). The percentages of significant phage reactivity in the HIV-positive and control groups were compared using the Fisher Exact Test; p values (p<0.001) were adjusted for multiple testing using the Bonferroni method. b, Comparison of ELISA reactivities of phagotopes with sera of LTNP (hatched bars) versus AIDS subjects (black bars). Data are expressed as mean±SEM of fold increase for each phagotope. Statistical analysis was performed according to the one-sided Student's t test; asterisks indicate p<0.05.
To validate that the bound phagotopes carry HIV-specific epitopes, positive colonies were tested by ELISA for reactivity with sera from multiple HIV-infected individuals and counter-screened with an equivalent number of sera from HIV-negative subjects. For the EJISA analysis, microtiter plates were coated with anti M13 antibody (Pharmacia, Piscataway, N.J.) at 10 μg/ml overnight at 4° C. in coating buffer. Fifty μl of cleared phage supernatant with an equal volume of blocking buffer were incubated for 1 h at 37° C. Plates were washed extensively and supplemented with human serum at 1:100 dilution followed by an overnight incubation at 4° C. After washing, wells were coated with an anti-human (Fc-specific) alkaline phosphatase-conjugated antibody. Plates were washed and developed. Results were expressed as the difference between OD405 nm and OD620 nm by an ELISA reader.

Sequence | ELISA reactivities compared with the original peptides displayed on the phagotopes [1] | displacement of antibody binding to HIV-1 by peptides in solution [3] | further results
TKTLIYQGA [P54 analog] | similar | – | –
EGEFCCAGQLTCSVCGDPAK [P287 analog] | similar | – | –
EGEFCQTKLVCFAAAGDPAK [P197 analog] | similar | – | –
TKTLIYGGA [p54] | – | – | ELISA reactivity with sera of SHIV-infected monkeys [2]: certain SHIV sera recognized
EGEFCCNGRLYCQPCGDPAK [P217 analog] | similar | – | –
CCGCLTCSV [compound 287] | – | Only a partial competition | –
CSGRLYCHESWC [P335 analog] | similar | – | –
EGEFCKSSGKLISLCGDPAK [P195 analog] | similar | – | –
KSSGKLISL [compound 195] | – | effectively displaced | –
SGRLYCHESW [p335] | – | – | antibody titers to phagotope in sera from LTNPs versus AIDS patients [4]: significantly higher in sera from LTNPs
GTKLVCFAA [compound 197] | – | effectively displaced | –
SGRLYCHESW [compound 335] | – | effectively displaced | –
CNGRLYCGP [p217] | – | – | recognition frequency (f) of positive sera by phagotope ([4]; 22 LTNP sera and 25 AIDS sera, serum 1:100, positive = at least four-fold over wild-type phage): 23%; antibody titers to phagotope in sera from LTNPs versus AIDS patients [4]: significantly higher in sera from LTNPs; ELISA reactivity with AIDS sera ([4]; pool of AIDS sera): completely unreactive
CNGRLYCGP [peptide 217] | – | Only a partial competition | –
